For this assay, the target named is T1, human TRPM2 channels (Homo sapiens, UniProt O94759).
T1 construct: expressed in transfected cells
The assay is described as follows: whole cell patch clamp, inhibition of TRPM2 channel current. It is filed as cell-based. To be noted: HEK293 cells stably expressing human TRPM2, 500 μM ADPR. The gist of the method:
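HEK293 cells stably expressing human TRPM2 were recorded in whole-cell mode, with current activated by 500 μM ADPR in the pipette and pH 7.4 extracellular solution. After stable current, compound was perfused for ≥60 s. Ramps from −100 to +100 mV over 500 ms every 5 s (holding 0 mV), with pH 5.0 solution blocking residual current at the end.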
(The patch-clamp technique gives a direct electrical read-out from membranes.)

T1 sequence (O94759 whole entry): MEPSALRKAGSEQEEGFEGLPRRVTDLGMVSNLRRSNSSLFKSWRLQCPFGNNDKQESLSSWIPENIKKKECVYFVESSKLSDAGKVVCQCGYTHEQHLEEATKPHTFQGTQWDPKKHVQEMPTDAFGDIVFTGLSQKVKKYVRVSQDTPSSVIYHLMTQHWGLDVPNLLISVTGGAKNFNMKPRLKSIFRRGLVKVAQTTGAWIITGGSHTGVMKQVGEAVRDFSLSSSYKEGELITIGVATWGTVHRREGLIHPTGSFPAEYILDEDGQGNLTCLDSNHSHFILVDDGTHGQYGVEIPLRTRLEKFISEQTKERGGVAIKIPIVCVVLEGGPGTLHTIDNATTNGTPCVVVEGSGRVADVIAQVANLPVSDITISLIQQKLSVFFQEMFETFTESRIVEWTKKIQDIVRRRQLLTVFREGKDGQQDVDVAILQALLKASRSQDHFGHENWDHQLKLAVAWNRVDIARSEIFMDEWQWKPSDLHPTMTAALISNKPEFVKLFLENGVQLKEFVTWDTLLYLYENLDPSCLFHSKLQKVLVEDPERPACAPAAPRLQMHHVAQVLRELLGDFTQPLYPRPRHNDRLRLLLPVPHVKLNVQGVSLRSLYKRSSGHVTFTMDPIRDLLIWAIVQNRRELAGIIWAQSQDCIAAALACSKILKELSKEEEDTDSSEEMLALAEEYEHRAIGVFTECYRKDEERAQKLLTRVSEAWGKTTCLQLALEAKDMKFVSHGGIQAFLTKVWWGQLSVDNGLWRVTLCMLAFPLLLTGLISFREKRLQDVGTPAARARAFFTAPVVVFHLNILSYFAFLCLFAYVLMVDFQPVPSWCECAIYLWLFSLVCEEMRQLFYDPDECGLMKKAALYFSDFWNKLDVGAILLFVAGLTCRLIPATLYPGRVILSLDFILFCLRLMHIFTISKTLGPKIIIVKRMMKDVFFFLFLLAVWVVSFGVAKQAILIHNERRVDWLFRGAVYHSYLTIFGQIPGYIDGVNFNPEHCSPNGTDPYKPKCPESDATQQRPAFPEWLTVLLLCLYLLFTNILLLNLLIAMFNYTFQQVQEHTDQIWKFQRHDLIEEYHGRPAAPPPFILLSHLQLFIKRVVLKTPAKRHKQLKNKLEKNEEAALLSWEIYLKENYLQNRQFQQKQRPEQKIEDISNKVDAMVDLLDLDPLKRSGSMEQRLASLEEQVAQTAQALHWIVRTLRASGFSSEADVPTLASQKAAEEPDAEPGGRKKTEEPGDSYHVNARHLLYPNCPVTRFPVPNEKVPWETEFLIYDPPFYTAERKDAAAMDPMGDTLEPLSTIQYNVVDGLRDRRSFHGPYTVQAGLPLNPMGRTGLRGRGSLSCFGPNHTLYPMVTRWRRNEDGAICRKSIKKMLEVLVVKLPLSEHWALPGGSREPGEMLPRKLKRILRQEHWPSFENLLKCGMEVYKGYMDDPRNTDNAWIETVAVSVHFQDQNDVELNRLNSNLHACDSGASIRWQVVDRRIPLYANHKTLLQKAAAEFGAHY

Consider `CCN(CC)C(=O)c1cc(C(=O)c2ccccc2)n2cccc2c1` [II-23, 5-Benzoyl-N, N-diethylindolizine-7-formamide], for which the 50% inhibitory concentration (IC50) – broadly, the concentration at which inhibition is half-maximal – is 1 to 10 µM.

The record behind these values is patent publication US20240228487A1, “FUSED HETEROCYCLIC COMPOUND AND APPLICATION THEREOF, PHARMACEUTICAL COMPOSITIONS CONTAINING SAME AND APPLICATION THEREOF” (ZHEJIANG UNIVERSITY, priority 2021, published 2024).
